Patent publication US9963462B2 (priority 2015, dated 2018)

Target: SNAP-hSPR (sepiapterin reductase, SPR) (Homo sapiens, UniProt P35270)
Assay: biochemical
Format: binding
Settings: terbium labelled SNAP-hSPR / SSZ labelled SNAP-EGFP; read-out: hTR-FRET IC50
Excerpt: TR-FRET Assay: A TR-FRET (homogeneous, time-resolved, fluorescence resonance energy transfer) assay was used to assess activity of compounds following standard assay conditions. […] Compounds were screened at different concentrations and IC50 values calculated.
Terbium labelled SNAP-hSPR and SSZ (sulfasalazine) labelled SNAP-EGFP were used as the protein pair in this assay. Compounds were screened at different concentrations, and 1050 and Kd values calculated.

Chain of SNAP-hSPR (sepiapterin reductase, SPR) (P35270 whole entry): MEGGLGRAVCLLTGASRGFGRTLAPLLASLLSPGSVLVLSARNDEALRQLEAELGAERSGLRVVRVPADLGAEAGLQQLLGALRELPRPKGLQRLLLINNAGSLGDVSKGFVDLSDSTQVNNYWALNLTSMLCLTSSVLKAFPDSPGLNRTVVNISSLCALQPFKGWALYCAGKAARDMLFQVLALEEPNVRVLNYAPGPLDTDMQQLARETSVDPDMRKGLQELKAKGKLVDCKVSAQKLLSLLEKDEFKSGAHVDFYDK

Cc1c(C(=O)N2CCN(C(=O)c3ccco3)CC2)cnn1-c1nn2cccc2c(=O)[nH]1 [Q-2032]
IC50: 6 nM

COc1ccc(S(=O)(=O)N2CCN(C(=O)c3cnn(-c4nn5cccc5c(=O)[nH]4)c3C)CC2)cc1 [Q-1804]
IC50: 2 nM

Cc1cc2nc(-n3ncc(C(=O)N4CCc5ccccc5C4)c3C)[nH]c(=O)c2s1 [Q-0407]
IC50: 1700 nM

Cc1c(C(=O)N2CCC(S(=O)(=O)c3ccccc3)CC2)cnn1-c1nn2cccc2c(=O)[nH]1 [Q-1984]
IC50: 1 nM

Cc1c(C(=O)N2CCN(C3COC3)CC2)cnn1-c1nn2cccc2c(=O)[nH]1 [Q-2041]
IC50: 3 nM

Cc1c(C(=O)N2CC(N3CCC(F)(F)C3)C2)cnn1-c1nc2c(c(=O)[nH]1)COC2 [Q-1343]
IC50: 70 nM

Cc1c(C(=O)N2CCC(c3nc(C(N)=O)cs3)CC2)cnn1-c1nn2cccc2c(=O)[nH]1 [Q-1090]
IC50: 1 nM

COC(=O)c1cnn(-c2nc3c(c(=O)[nH]2)CC(C)(C)C3)c1C [Q-1641]
IC50: 5000 nM

Cc1cc(=O)n(C)c(-n2ncc(C(=O)N3CCc4ccccc4C3)c2C)n1 [Q-0455]
IC50: 16000 nM

Cc1c(C(=O)N2CC3CC(C2)N3CC(F)(F)F)cnn1-c1nc2c(c(=O)[nH]1)COC2 [Q-1483]
IC50: 30 nM

Cc1c(C(=O)N2CCN(S(=O)(=O)c3ccc(Cl)c(C(F)(F)F)c3)CC2)cnn1-c1nn2cccc2c(=O)[nH]1 [Q-1840]
IC50: 3 nM

Cc1c(C(=O)N2CCN(S(=O)(=O)c3cc(C(F)(F)F)cc(C(F)(F)F)c3)CC2)cnn1-c1nn2cccc2c(=O)[nH]1 [Q-1835]
IC50: 4 nM

Cc1c(C(=O)N2CC[C@H]2c2ccc(F)nc2)cnn1-c1nn2cccc2c(=O)[nH]1 [Q-2055]
IC50: 7 nM

CCn1ccc2c(=O)[nH]c(-n3ncc(C(=O)N4CC(N5CCC(F)(F)C5)C4)c3C)nc21 [Q-1311]
IC50: 5000 nM

Cc1c(C(=O)N2CC(N3CCC(F)(F)C3)C2)cnn1-c1nc2[nH]ncc2c(=O)[nH]1 [Q-1345]
IC50: 1400 nM

Cc1c(C(=O)N2CCN(S(=O)(=O)c3cccc(C(=O)O)c3)CC2)cnn1-c1nn2cccc2c(=O)[nH]1 [Q-1845]
IC50: 2 nM

O=c1[nH]c(-c2cc(Br)ccn2)nc2ccsc12 [Q-0540]
IC50: 300 nM

Cc1c(C(=O)N2CCc3ccccc3C2)cnn1-c1nc2cc(Cl)sc2c(=O)[nH]1 [Q-0394]
IC50: 1500 nM

CC(=O)Nc1ccc(S(=O)(=O)N2CCN(C(=O)c3cnn(-c4nn5cccc5c(=O)[nH]4)c3C)CC2)cc1 [Q-1833]
IC50: 1 nM

Cc1c(C(=O)N2CCN(S(=O)(=O)c3cnn(C)c3)CC2)cnn1-c1nn2cccc2c(=O)[nH]1 [Q-1832]
IC50: 3 nM

Cc1c(C(=O)N2CCN(c3nnc(-c4cccnc4)o3)CC2)cnn1-c1nn2cccc2c(=O)[nH]1 [Q-1150]
IC50: 1 nM

CCn1ccc2c(=O)[nH]c(-n3ncc(C(=O)N4CCN(CC(F)(F)F)CC4)c3C)nc21 [Q-1292]
IC50: 5000 nM

Cc1c(C(=O)N2CC3(C2)CC(F)(F)C3)cnn1-c1nc2c(c(=O)[nH]1)COC2 [Q-1346]
IC50: 50 nM

Cc1c(C(=O)N2CCN(S(=O)(=O)c3cccc4c(N(C)C)cccc34)CC2)cnn1-c1nn2cccc2c(=O)[nH]1 [Q-1815]
IC50: 2 nM

Cc1c(C(=O)N2CCN(S(=O)(=O)c3ccc(Cl)c(Cl)c3)CC2)cnn1-c1nn2cccc2c(=O)[nH]1 [Q-1830]
IC50: 2 nM

Cc1c(C(=O)N2CCN(S(=O)(=O)c3ccc4c(c3)OCO4)CC2)cnn1-c1nn2cccc2c(=O)[nH]1 [Q-1829]
IC50: 2 nM

Cc1c(C(=O)N2CCc3c(c(C(F)(F)F)nn3C)C2)cnn1-c1nn2cccc2c(=O)[nH]1 [Q-2048]
IC50: 4 nM

Cc1c(C(=O)N2CC(N3CCC(F)(F)C3)C2)cnn1-c1nc2c(c(=O)[nH]1)CC(C)(C)C2 [Q-1564, 2-(4-(3-(3,3-difluoropyrrolidin-1-yl)azetidine-1-carbonyl)-5-methyl-1H-pyrazol-1-yl)-6,6-dimethyl-6,7-dihydro-3H-cyclopenta[d]pyrimidin-4(5H)-one]
IC50: 5000 nM

CC(=O)Nc1nc(C)c(S(=O)(=O)N2CCN(C(=O)c3cnn(-c4nn5cccc5c(=O)[nH]4)c3C)CC2)s1 [Q-1827]
IC50: 1 nM

Cc1c(C(=O)N2CCN(CC(F)(F)F)CC2)cnn1-c1nc2c(c(=O)[nH]1)CC(C)(C)C2 [Q-1563]
IC50: 5000 nM

Cc1c(C(=O)N2CCN(CC(F)(F)F)CC2)cnn1-c1nc2[nH]ncc2c(=O)[nH]1 [Q-1296]
IC50: 600 nM

O=C(c1cnn(-c2cc3nccn3c(=O)[nH]2)c1)N1CCC(C(F)(F)F)CC1 [Q-0452]
IC50: 800 nM

Cc1c(C(=O)N2CCN(S(=O)(=O)c3ccc(Cl)c4nonc34)CC2)cnn1-c1nn2cccc2c(=O)[nH]1 [Q-1885]
IC50: 10 nM

CCn1ccc2c(=O)[nH]c(-n3ncc(C(=O)N4CC5CC(C4)N5CC(F)(F)F)c3C)nc21 [Q-1341]
IC50: 5000 nM

CCn1ccc2c(=O)[nH]c(-n3ncc(C(=O)N4CC5(C4)CC(F)(F)C5)c3C)nc21 [Q-1313]
IC50: 5000 nM

Cc1cc(-c2cnn(CCC(=O)N3CCc4ccccc4C3)c2)[nH]c(=O)n1 (single isomer, unassigned) [Q-0292, 4-methyl-6-{1-[3-oxo-3-(1,2,3,4-tetrahydroisoquinolin-2-yl)propyl]-1H-pyrazol-4-yl}-1,2-dihydropyrimidin-2-one]
IC50: 40000 nM

CNC(=O)c1cnn(-c2nc(C)cc(=O)[nH]2)c1C [Q-0316]
IC50: 300 nM

Cc1nc(-n2ccc(C(=O)N3CCC(C(F)(F)F)CC3)n2)cc(=O)[nH]1 [Q-0437, 2-methyl-6-{3-[4-(trifluoromethyl)piperidine-1-carbonyl]-1H-pyrazol-1-yl}-3,4-dihydropyrimidin-4-one]
IC50: 5000 nM

Cc1cc(=O)[nH]c(-n2nc(C)c(CCC(=O)N3CCCCC3C)c2C)n1 (stereo not drawn) [Q-0002]
IC50: 30 nM

Cc1c(C(=O)N2CC3(C2)CC(F)(F)C3)cnn1-c1nc2c(ccn2C)c(=O)[nH]1 [Q-1306]
IC50: 500 nM

Cc1c(C(N2CCC(C(F)(F)F)CC2)C(F)(F)F)cnn1-c1nc2c(c(=O)[nH]1)CCC2 (stereo not drawn) [Q-0503, 2-(5-methyl-4-{2,2,2-trifluoro-1-[4-(trifluoromethyl)piperidin-1-yl]ethyl}-1H-pyrazol-1-yl)-3H,4H,5H,6H,7H-cyclopenta[d]pyrimidin-4-one]
IC50: 4000 nM

Cc1c(C(=O)N2CCc3[nH]nc(C(F)(F)F)c3C2)cnn1-c1nn2cccc2c(=O)[nH]1 [Q-2031]
IC50: 3 nM

Cc1c(C(=O)O)cnn1-c1nc2ccsc2c(=O)[nH]1 [Q-0541]
IC50: 200 nM

Cc1c(C(=O)N2CC3CC(C2)N3CC(F)(F)F)cnn1-c1nc2c(ccn2C)c(=O)[nH]1 [Q-1365]
IC50: 1000 nM

Cc1cc(=O)[nH]c(-c2c(C)nn(CCC(=O)N3CCCC3)c2C)n1 [Q-0306]
IC50: 25000 nM

Cc1cc(=O)[nH]c(-n2nc(C)c(CC(=O)N3CCCC3)c2C)n1 [Q-0301]
IC50: 200 nM

Cc1c(C(=O)N2CCN(S(=O)(=O)c3ccc(Br)cc3)CC2)cnn1-c1nn2cccc2c(=O)[nH]1 [Q-1837]
IC50: 1 nM

Cc1c(C(=O)N2CCN(S(=O)(=O)c3cc(Cl)c(Cl)s3)CC2)cnn1-c1nn2cccc2c(=O)[nH]1 [Q-1814]
IC50: 2 nM

Cc1c(C(=O)N2CC[C@@H]2c2ccc(F)nc2)cnn1-c1nn2cccc2c(=O)[nH]1 [Q-2054]
IC50: 4 nM

Cc1cc(=O)[nH]c(-n2ncc(C(=O)N3CCC4(CCN(C)C4)C3)c2C)n1 (stereo not drawn) [Q-0322]
IC50: 200 nM

Cc1c(C(=O)N2CCC(C(F)(F)F)CC2)cnn1-c1nc2nc[nH]c2c(=O)[nH]1 [Q-0448]
IC50: 1500 nM

Cc1cc(=O)[nH]c(-n2ncc(C(=O)NCCc3ccc(F)cc3)c2C)n1 [Q-0007]
IC50: 100 nM

Cc1c(C(=O)N2CCN(S(=O)(=O)c3cnc4ccccc4c3)CC2)cnn1-c1nn2cccc2c(=O)[nH]1 [Q-1864]
IC50: 4 nM

Cc1c(C(=O)N2CC3(C2)CC(F)(F)C3)cnn1-c1nc2c(c(=O)[nH]1)CC(C)(C)C2 [Q-1565]
IC50: 5000 nM

Cc1cc2c(=O)[nH]c(-n3ncc(C(=O)N4CCC(C(F)(F)F)CC4)c3C)nc2s1 [Q-0413]
IC50: 2200 nM

COc1ccccc1NC(=O)c1cnn(-c2nc(C)cc(=O)[nH]2)c1C [Q-0004]
IC50: 70 nM

Cc1c(C(=O)O)cnn1-c1nc2c(c(=O)[nH]1)CC(C)(C)C2 [Q-1597]
IC50: 5000 nM

Cc1cc(-n2ncc(C(=O)N3CCC(C(F)(F)F)CC3)c2C)[nH]c(=O)n1 [Q-0454]
IC50: 300 nM

Cc1c(C(=O)N2CCC(S(C)(=O)=O)CC2)cnn1-c1nn2cccc2c(=O)[nH]1 [Q-1985]
IC50: 2 nM

Cc1cc(=O)[nH]c(-c2c(C)nn(CCC(=O)N3CCc4ccccc4C3)c2C)n1 [Q-0284]
IC50: 2900 nM

Cc1c(C(=O)N2CCN(S(=O)(=O)c3ccc(C(F)(F)F)cc3)CC2)cnn1-c1nn2cccc2c(=O)[nH]1 [Q-1834]
IC50: 1 nM

Cc1cc(-c2c(C)nn(CCC(=O)N3CCc4ccccc4C3)c2C)[nH]c(=O)n1 [Q-0285, 4-{3,5-dimethyl-1-[3-oxo-3-(1,2,3,4-tetrahydroisoquinolin-2-yl)propyl]-1H-pyrazol-4-yl}-6-methyl-1,2-dihydropyrimidin-2-one]
IC50: 40000 nM

Cc1c(C(=O)N2CCC2c2ccnc(F)c2)cnn1-c1nn2cccc2c(=O)[nH]1 (stereo not drawn) [Q-1320]
IC50: 20 nM

Cc1c(C(=O)N2CC3CC(C2)N3CC(F)(F)F)cnn1-c1nc2[nH]ncc2c(=O)[nH]1 [Q-1560]
IC50: 800 nM

Cc1cc(=O)[nH]c(-n2ncc(C(=O)O)c2C)n1 [Q-0290]
IC50: 2000 nM

Cc1c(C(=O)N2CCNCC2)cnn1-c1nn2cccc2c(=O)[nH]1 [Q-1251]
IC50: 50 nM

Cc1nc(-n2ncc(C(=O)N3CCC(C(F)(F)F)CC3)c2C)cc(=O)[nH]1 [Q-0436]
IC50: 4600 nM

O=C(O)c1cnn(-c2nc3c(c(=O)[nH]2)CCC3)c1C1CC1 [Q-0544]
IC50: 30 nM

Cc1c(C(=O)N2CCN(S(=O)(=O)c3ccc(OC(F)(F)F)cc3)CC2)cnn1-c1nn2cccc2c(=O)[nH]1 [Q-1798, 2-(5-methyl-4-(4-(4-(trifluoromethoxy)phenylsulfonyl)piperazine-1-carbonyl)-1H-pyrazol-1-yl)pyrrolo[1,2-f][1,2,4]triazin-4(3H)-one]
IC50: 2 nM

Cc1c(C(=O)N2CC(c3ccncc3F)C2)cnn1-c1nn2cccc2c(=O)[nH]1 [Q-2043]
IC50: 5 nM

Cc1c(C(=O)O)cnn1-c1nc2sccc2c(=O)[nH]1 [Q-0542]
IC50: 100 nM

Cc1c(C(=O)NC2CCCC2)cnn1-c1nc2ccccc2c(=O)[nH]1 [Q-0321]
IC50: 900 nM
